The results in this text go back to patent US20060252683A1, “Preparation of a peptide compound (SYRAPRO-2000) and its use for the activation of protein phosphatase-2A1 enzyme” (priority 2005, published 2006).

Holding throughout (type): cell-based, human
A short description of series [1]: Cell viability (tryphan blue) and cell death of SK-N-SH cells. The settings on record: human, SK-N-SH cells (neuroblastoma cell line), 2000 nM, 4 days of incubation, read-out: treated cells non viable (tryphan blue staining). On the procedure: (§1) Panel A, SK—N—SH cells (a human neuroblastoma cell line) were grown in DMEM and 5% (v/v) fetal bovine serum. Cells (10^6 cells per ml) were treated (+) or not (−) with 2000 nM SYRAPRO-2000. Cell viability was then determined by counting the cells following tryphan blue staining after 4, 8 and 12 days of incubation. Panel B, Following treatment with or without SYRAPRO-2000 for 8 days, SK—N—SH cells grown on slides were analyzed by phase contrast microscopy (Row A), by fluorescence microscopy following staining with FITC labeled annexin V (apoptotic cell death) (Row B) or propidium iodide (oncolytic cell death) on a on a Zeiss Axioplan 2 imaging universal microscope (Thornwood, N.Y.). Phase contrast images and Green (FITC labeled annexin V) and red (propidium iodide) fluorescence images were obtained. […]
(§2) SK—N—SH cells are grown in DMEM supplemented with 5% (v/v) fetal bovine serum and antibiotics and treated or not with 2 μM SYRAPRO-2000 for 8 days. Following treatment with SYRAPRO-2000, cell viability are then determined by counting the cells following tryphan blue staining. […] Following treatment with SYRAPRO-2000, cells grown on slides by were analyzed by phase contrast microscopy and fluorescence microscopy following staining with FITC labeled annexin V (an indicator of apoptotic cell death) or propidium iodide (an indicator of oncolytic or necrotic cell death). […]

Series [2] relates to SK—N—SH cells. Described as above. As to conditions: 2000 nM, 8 days. On the procedure:
as §1, §2

For series [3], the system named is HTB-3 cells. Briefly: Cell viability (tryphan blue) and cell death of HTB-3 cells. The settings on record: 2000 nM, 8 days. The procedure:
(§3) Panel A, HTB-3 cells (a human glioblastoma cell line) were grown in DMEM and 5% (v/v) fetal bovine serum. Cells (10^6 cells per ml) were treated (+) or not (−) with 2000 nM SYRAPRO-2000. Cell viability was then determined by counting the cells following tryphan blue staining after 4, 8 and 12 days of incubation. Panel B, Following treatment with or without SYRAPRO-2000 for 8 days, HTB-3 cells grown on slides were analyzed by phase contrast microscopy (Row A), by fluorescence microscopy following staining with FITC labeled annexin V (apoptotic cell death) (Row B) or propidium iodide (oncolytic cell death) on a Cells were analyzed on a Zeiss Axioplan 2 imaging universal microscope (Thornwood, N.Y.). Phase contrast images and Green (FITC labeled annexin V) and red (propidium iodide) fluorescence images were obtained. […]
(§4) HTB-3 cells are grown in DMEM supplemented with 5% (v/v) fetal bovine serum and antibiotics and treated or not with 2 μM SYRAPRO-2000 for 8 days. Following treatment with SYRAPRO-2000, cell viability are then determined by counting the cells following tryphan blue staining. […] Following treatment with SYRAPRO-2000, cells grown on slides by were analyzed by phase contrast microscopy and fluorescence microscopy following staining with FITC labeled annexin V (an indicator of apoptotic cell death) or propidium iodide (an indicator of oncolytic or necrotic cell death). […]

Assay in series [4]: as above
The settings on record: human, HTB-3 cells (glioblastoma cell line), 2000 nM, 8 days of incubation, read-out: treated cells non viable (tryphan blue staining). The procedure:
as §3, §4

Turning to `CC[C@H](C)[C@H](NC(=O)[C@H](CCCNC(=N)N)NC(=O)[C@H](CO)NC(=O)[C@H](Cc1c[nH]cn1)NC(=O)[C@H](CCCNC(=N)N)NC(=O)[C@H](CS)NC(=O)CNC(=O)[C@@H](NC(=O)[C@H](CCCNC(=N)N)NC(=O)[C@H](Cc1ccccc1)NC(=O)[C@@H](N)Cc1c[nH]cn1)[C@@H](C)CC)C(=O)NCC(=O)N[C@H](C(=O)N[C@H](C(=O)N[C@@H](CCCNC(=N)N)C(=O)N[C@@H](CCC(N)=O)C(=O)N[C@@H](CCCNC(=N)N)C(=O)N[C@@H](CCCNC(=N)N)C(=O)N[C@@H](C)C(=O)N[C@@H](CCCNC(=N)N)C(=O)N[C@@H](CC(N)=O)C(=O)NCC(=O)N[C@@H](C)C(=O)N[C@@H](CO)C(=O)N[C@@H](CCCNC(=N)N)C(=O)N[C@@H](CO)C(=O)O)[C@@H](C)O)C(C)C` [SYRAPRO-2000], in series [1], the cytotoxicity at 4 days, 2 µM was approximately 50%. The “mode of cell death (FITC-annexin V and propidium iodide staining)” value is “apoptosis and oncolysis” in series [2]; “apoptosis and oncolysis” in series [3]. Besides, the cytotoxicity at 8 days, 2 µM in series [4] was approximately 50%.
